Source: ChEMBL document CHEMBL4732176, “Synthesis and biological evaluation of novel N-substituted benzamides as anti-migration agents for treatment of osteosarcoma” (Eur J Med Chem, 2021)
The source made the active and inactive calls. The rule behind the calls is not given here.

Assays:
[1] = Cytotoxicity against human MIHA cells assessed as reduction in cell viability at 40 uM incubated for 48 hrs by MTT assay; assay type: cell-based
[2] = biological target: Focal adhesion kinase 1 (Homo sapiens) (UniProt Q05397); assay: Inhibition of FAK phosphorylation in human U2OS cells at 5 to 20 uM incubated for 48 hrs by Western blot analysis; assay type: cell-based; settings: dose 5-20 µM
Chain of Focal adhesion kinase 1 (Homo sapiens) (Q05397 2-1052 limits assumed): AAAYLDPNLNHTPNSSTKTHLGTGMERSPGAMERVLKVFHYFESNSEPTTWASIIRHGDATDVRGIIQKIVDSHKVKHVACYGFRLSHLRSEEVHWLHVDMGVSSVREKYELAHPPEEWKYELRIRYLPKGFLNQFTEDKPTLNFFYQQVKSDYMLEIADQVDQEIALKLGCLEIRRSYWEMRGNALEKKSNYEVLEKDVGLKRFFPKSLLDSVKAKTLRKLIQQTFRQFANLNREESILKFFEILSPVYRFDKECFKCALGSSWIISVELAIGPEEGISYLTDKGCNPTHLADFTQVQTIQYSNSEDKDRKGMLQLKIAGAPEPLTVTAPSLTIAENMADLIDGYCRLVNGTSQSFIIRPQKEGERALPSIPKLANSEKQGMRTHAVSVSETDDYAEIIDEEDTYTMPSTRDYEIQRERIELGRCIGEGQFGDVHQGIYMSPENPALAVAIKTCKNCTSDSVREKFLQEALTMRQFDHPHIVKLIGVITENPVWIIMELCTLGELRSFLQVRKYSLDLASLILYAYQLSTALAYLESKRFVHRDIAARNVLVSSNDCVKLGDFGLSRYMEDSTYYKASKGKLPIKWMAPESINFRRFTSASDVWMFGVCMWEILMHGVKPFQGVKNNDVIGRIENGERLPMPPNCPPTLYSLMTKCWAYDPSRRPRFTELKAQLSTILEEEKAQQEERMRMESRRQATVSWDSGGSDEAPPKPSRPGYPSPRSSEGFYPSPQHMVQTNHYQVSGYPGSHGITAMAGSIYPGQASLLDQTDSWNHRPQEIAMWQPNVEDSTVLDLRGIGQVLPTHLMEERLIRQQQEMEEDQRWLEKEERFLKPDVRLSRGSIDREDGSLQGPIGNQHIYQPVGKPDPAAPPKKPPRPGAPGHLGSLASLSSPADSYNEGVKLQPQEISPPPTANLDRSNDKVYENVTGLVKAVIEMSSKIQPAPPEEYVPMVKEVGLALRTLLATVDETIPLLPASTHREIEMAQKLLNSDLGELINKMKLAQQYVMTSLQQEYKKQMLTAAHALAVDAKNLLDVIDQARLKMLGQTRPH

[3] = biological target: Focal adhesion kinase 1 (Homo sapiens) (UniProt Q05397); assay: Inhibition of FAK phosphorylation in human MG-63 cells at 5 to 20 uM incubated for 48 hrs by Western blot analysis; assay type: cell-based; settings: dose 5-20 µM
[4] = test system: MG-63; assay: Cytotoxicity against human MG-63 cells assessed as reduction in cell viability incubated for 48 hrs by MTT assay; assay type: functional, cell-based; settings: MG-63, 48 h
[5] = Cytotoxicity against human MIHA cells assessed as reduction in cell viability incubated for 48 hrs by MTT assay; assay type: cell-based
[6] = test system: U2OS; assay: Cytotoxicity against human U2OS cells assessed as reduction in cell viability incubated for 48 hrs by MTT assay; assay type: functional, cell-based

SMILES | Activity [1] | further results
O=C(Nc1cccc2cn[nH]c12)c1cc(Cl)ccc1O | Non-Toxic | 
COC(=O)CCn1ncc2c(NC(=O)c3cc(Cl)ccc3O)cccc21 | Non-Toxic | 
O=C(O)CCn1ncc2c(NC(=O)c3cc(Cl)ccc3O)cccc21 | Non-Toxic | 
O=C(Nc1cccc2[nH]ccc12)c1cc(Cl)ccc1O | Non-Toxic | 
O=C(Nc1ccc2c(cnn2C(=O)c2ccccc2)c1)c1cc(Cl)ccc1O |  | inhibition [2]: Active; inhibition [3]: Active
O=C(Nc1cccc2[nH]ncc12)c1cc(Cl)ccc1O | Non-Toxic | 
CN(C)c1ccc(C(=O)n2ncc3c(NC(=O)c4cc(Cl)ccc4O)cccc32)cc1 | Non-Toxic | 
CN(C)C(=O)Cn1cc2c(NC(=O)c3cc(Cl)ccc3O)cccc2n1 | Non-Toxic | 
O=C(Nc1cc(C(F)(F)F)cc(C(F)(F)F)c1)c1cc(Cl)ccc1O [IMD-0354] | Non-Toxic | IC50 [4]: 48.7 µM; IC50 [5]: > 100 µM; IC50 [6]: 50.9 µM
O=C(Nc1cccc2nn(CCO)cc12)c1cc(Cl)ccc1O | Non-Toxic | 
CN(C)C(=O)n1ncc2c(NC(=O)c3cc(Cl)ccc3O)cccc21 | Non-Toxic | 
O=C(Nc1ccc2[nH]ccc2c1)c1cc(Cl)ccc1O | Non-Toxic | 
O=C(Nc1cccc2c1cnn2C(=O)N1CCOCC1)c1cc(Cl)ccc1O | Non-Toxic | 
COc1ccc(NC(=O)n2ncc3c(NC(=O)c4cc(Cl)ccc4O)cccc32)cc1 | Non-Toxic | 
O=C(Nc1cccc2cc[nH]c12)c1cc(Cl)ccc1O | Non-Toxic | 
O=C(Nc1cccc2c1cnn2CCO)c1cc(Cl)ccc1O | Non-Toxic | 
COC(=O)CCn1cc2c(NC(=O)c3cc(Cl)ccc3O)cccc2n1 | Non-Toxic | 
O=C(Nc1cccc2c1cnn2C(=O)c1c(Cl)cccc1Cl)c1cc(Cl)ccc1O | Non-Toxic | 
O=C(O)CCn1cc2c(NC(=O)c3cc(Cl)ccc3O)cccc2n1 | Non-Toxic | 
O=C(Nc1ccc2[nH]ncc2c1)c1cc(Cl)ccc1O | Non-Toxic | 
CN(C)C(=O)Cn1ncc2c(NC(=O)c3cc(Cl)ccc3O)cccc21 | Non-Toxic | 
O=C(Nc1ccc2cn[nH]c2c1)c1cc(Cl)ccc1O | Non-Toxic | 
